US20140206681A1, “BTK INHIBITORS” (priority 2013, published 2014)

What was measured:
HeLa cells = assay: [3H]Adenosine uptake functional cellular assay; format: cell-based; details: Homo sapiens, HeLa, accumulation of [3H]adenosine into HeLa cells; compound range 10 μM to […]; read-out: Adenosine uptake inhibition IC50
Outline: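 Inhibition of adenosine uptake was measured in HeLa cells (ATCC CCL-2) by following accumulation of tritiated adenosine. Cells were kept overnight at 37° C. with 5% (v/v) CO2, then switched to 40 μL HBSS plus 5% (v/v) FBS. 20 μL of 500 nM [3H]adenosine was added, and uptake was counted on a Topcount NXT reader.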

[1] = target: T1, BTK enzyme (recombinant full-length BTK, hBTK) (Homo sapiens, UniProt Q06187); assay: BTK enzyme activity assay, LANCE TR-FRET; format: biochemical; details: 50 pM hBTK, 2 μM biotin-A5-peptide, 25 μM ATP; 60 min compound & enzyme incubation; read-out: IC50 BTK activity value
T1 construct: recombinant protein from baculovirus-transfected Sf9 cells: full-length BTK, 6HIS-tag cleaved; 6HIS (cleaved yes); made in house; host or cells: baculovirus-transfected Sf9 cells
T1 sequence (Q06187 whole entry): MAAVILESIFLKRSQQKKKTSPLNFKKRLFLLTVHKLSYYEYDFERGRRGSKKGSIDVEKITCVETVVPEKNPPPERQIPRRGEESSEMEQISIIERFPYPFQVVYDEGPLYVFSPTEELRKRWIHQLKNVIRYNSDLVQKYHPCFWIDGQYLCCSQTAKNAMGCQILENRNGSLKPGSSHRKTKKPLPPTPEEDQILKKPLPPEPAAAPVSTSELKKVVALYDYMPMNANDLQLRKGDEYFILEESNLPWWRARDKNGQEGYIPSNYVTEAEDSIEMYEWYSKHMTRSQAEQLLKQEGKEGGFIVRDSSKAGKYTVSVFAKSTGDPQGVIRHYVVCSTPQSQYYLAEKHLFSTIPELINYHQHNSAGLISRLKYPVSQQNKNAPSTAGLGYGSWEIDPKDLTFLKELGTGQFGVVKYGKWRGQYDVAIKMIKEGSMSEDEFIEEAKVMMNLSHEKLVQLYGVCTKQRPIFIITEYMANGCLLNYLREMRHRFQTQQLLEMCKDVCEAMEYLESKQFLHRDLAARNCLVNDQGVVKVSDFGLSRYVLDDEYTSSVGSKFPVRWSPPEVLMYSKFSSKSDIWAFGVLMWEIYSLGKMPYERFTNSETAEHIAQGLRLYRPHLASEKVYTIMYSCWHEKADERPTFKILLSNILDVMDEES

SMILES	IC50 (HeLa cells) [nM]	IC50 [1] [nM]
Nc1ncc(F)n2c([C@@H]3CC[C@H]4CCC(=O)N4C3)nc(-c3ccc(C(=O)Nc4cc(C5CC5)ccn4)cc3F)c12 [Example 167, 4-{8-amino-5-fluoro-3-[(6R,8aS)-3-oxooctahydroindolizin-6-yl]imidazo[1,5-a]pyrazin-1-yl}-N-(4-cyclopropylpyridin-2-yl)-3-fluorobenzamide]	318	1.3
Nc1ncc(F)n2c([C@@H]3CC[C@H]4CCC(=O)N4C3)nc(-c3ccc(C(=O)Nc4cc(C5CC5)ccn4)cc3)c12 [Example 168, 4-{8-amino-5-fluoro-3-[(6R,8aS)-3-oxooctahydroindolizin-6-yl]imidazo[1,5-a]pyrazin-1-yl}-N-(4-cyclopropylpyridin-2-yl)benzamide]	285	1.5
CCOc1cc(C(=O)Nc2cc(C(F)(F)F)ccn2)c(F)cc1-c1nc([C@@H]2CC[C@H]3CCC(=O)N3C2)n2c(F)cnc(N)c12 [Example 169, 4-{8-amino-5-fluoro-3-[(6R,8aS)-3-oxooctahydroindolizin-6-yl]imidazo[1,5-a]pyrazin-1-yl}-5-ethoxy-2-fluoro-N-[4-(trifluoromethyl)pyridin-2-yl]benzamide]	2950	3.7
Nc1nccn2c([C@@H]3CC[C@H]4CCC(=O)N4C3)nc(-c3ccc(C(=O)Nc4cc(C(F)(F)F)[nH]n4)cc3)c12 [Example 170, 4-(8-amino-3-((6R,8aS)-3-oxooctahydroindolizin-6-yl)imidazo[1,5-a]pyrazin-1-yl)-N-(5-(trifluoromethyl)-1H-pyrazol-3-yl)benzamide]	6750	36.9
Cc1cc(NC(=O)c2ccc(-c3nc([C@@H]4CC[C@H]5CCC(=O)N5C4)n4ccnc(N)c34)cc2)nn1C [Example 175, 4-{8-amino-3-[(6R,8aS)-3-oxooctahydroindolizin-6-yl]imidazo[1,5-a]pyrazin-1-yl}-N-(1,5-dimethyl-1H-pyrazol-3-yl)benzamide]	725	6.5
Cc1nsc(NC(=O)c2ccc(-c3nc([C@@H]4CC[C@H]5CCC(=O)N5C4)n4ccnc(N)c34)cc2)n1 [Example 176, 4-{8-amino-3-[(6R,8aS)-3-oxooctahydroindolizin-6-yl]imidazo[1,5-a]pyrazin-1-yl}-N-(3-methyl-1,2,4-thiadiazol-5-yl)benzamide]	7810	14.9
Nc1nccn2c([C@@H]3CC[C@H]4CCC(=O)N4C3)nc(-c3ccc(C(=O)Nc4nc(C(F)(F)F)c[nH]4)cc3)c12 [Example 177, 4-{8-amino-3-[(6R,8aS)-3-oxooctahydroindolizin-6-yl]imidazo[1,5-a]pyrazin-1-yl}-N-[4-(trifluoromethyl)-1H-imidazol-2-yl]benzamide]	3320	144
CCc1nsc(NC(=O)c2ccc(-c3nc([C@@H]4CC[C@H]5CCC(=O)N5C4)n4ccnc(N)c34)cc2)n1 [Example 178, 4-{8-amino-3-[(6R,8aS)-3-oxooctahydroindolizin-6-yl]imidazo[1,5-a]pyrazin-1-yl}-N-(3-ethyl-1,2,4-thiadiazol-5-yl)benzamide]	5490	27.6
CC(C)c1nsc(NC(=O)c2ccc(-c3nc([C@@H]4CC[C@H]5CCC(=O)N5C4)n4ccnc(N)c34)cc2)n1 [Example 179, 4-{8-amino-3-[(6R,8aS)-3-oxooctahydroindolizin-6-yl]imidazo[1,5-a]pyrazin-1-yl}-N-[3-(1-methylethyl)-1,2,4-thiadiazol-5-yl]benzamide]	2370	68.9
Nc1nccn2c([C@@H]3CC[C@H]4CCC(=O)N4C3)nc(-c3ccc(C(=O)Nc4cc(C(F)(F)F)n(C5CCCC5)n4)cc3)c12 [Example 180, 4-{8-amino-3-[(6R,8aS)-3-oxooctahydroindolizin-6-yl]imidazo[1,5-a]pyrazin-1-yl}-N-[1-cyclopentyl-5-(trifluoromethyl)-1H-pyrazol-3-yl]benzamide]	230	285
Cc1nnc(NC(=O)c2ccc(-c3nc([C@@H]4CC[C@H]5CCC(=O)N5C4)n4ccnc(N)c34)cc2)s1 [Example 182, 4-{8-amino-3-[(6R,8aS)-3-oxooctahydroindolizin-6-yl]imidazo[1,5-a]pyrazin-1-yl}-N-(5-methyl-1,3,4-thiadiazol-2-yl)benzamide]	3610	272
Cn1nc(NC(=O)c2ccc(-c3nc([C@@H]4CC[C@H]5CCC(=O)N5C4)n4c(Cl)cnc(N)c34)cc2)cc1C(F)(F)F [Example 183, 4-(8-amino-5-chloro-3-((6R,8aS)-3-oxooctahydroindolizin-6-yl)imidazo[1,5-a]pyrazin-1-yl)-N-(1-methyl-5-(trifluoromethyl)-1H-pyrazol-3-yl)benzamide]	470	0.64
CCn1nc(NC(=O)c2ccc(-c3nc([C@@H]4CC[C@H]5CCC(=O)N5C4)n4ccnc(N)c34)cc2)cc1C(F)(F)F [Example 185, 4-{8-amino-3-[(6R,8aS)-3-oxooctahydroindolizin-6-yl]imidazo[1,5-a]pyrazin-1-yl}-N-[1-ethyl-5-(trifluoromethyl)-1H-pyrazol-3-yl]benzamide]	5390	237
Cc1cc(C(=O)Nc2cc(C(F)(F)F)ccn2)ccc1-c1nc([C@@H]2CC[C@H]3CCC(=O)N3C2)n2ccnc(N)c12 [Example 187, 4-{8-amino-3-[(6R,8aS)-3-oxooctahydroindolizin-6-yl]imidazo[1,5-a]pyrazin-1-yl}-3-methyl-N-[4-(trifluoromethyl)pyridin-2-yl]benzamide]	310	0.46
COc1cc(C(=O)Nc2cc(C(F)(F)F)n(C)n2)ccc1-c1nc([C@@H]2CC[C@H]3CCC(=O)N3C2)n2ccnc(N)c12 [Example 188, 4-{8-amino-3-[(6R,8aS)-3-oxooctahydroindolizin-6-yl]imidazo[1,5-a]pyrazin-1-yl}-3-methoxy-N-[1-methyl-5-(trifluoromethyl)-1H-pyrazol-3-yl]benzamide]	3690	2.7
COc1cc(C(=O)Nc2cc(C(F)(F)F)n(C)n2)ccc1-c1nc([C@@H]2CC[C@H]3CCC(=O)N3C2)n2c(Cl)cnc(N)c12 [Example 189, 4-{8-amino-5-chloro-3-[(6R,8aS)-3-oxooctahydroindolizin-6-yl]imidazo[1,5-a]pyrazin-1-yl}-3-methoxy-N-[1-methyl-5-(trifluoromethyl)-1H-pyrazol-3-yl]benzamide]	1550	1.5
Cn1nc(NC(=O)c2ccc(-c3nc([C@@H]4CC[C@H]5CCC(=O)N5C4)n4ccnc(N)c34)c(Cl)c2)cc1C(F)(F)F [Example 190, 4-{8-amino-3-[(6R,8aS)-3-oxooctahydroindolizin-6-yl]imidazo[1,5-a]pyrazin-1-yl}-3-chloro-N-[1-methyl-5-(trifluoromethyl)-1H-pyrazol-3-yl]benzamide]	310	2.2
Cn1nc(NC(=O)c2ccc(-c3nc([C@@H]4CC[C@H]5CCC(=O)N5C4)n4c(Cl)cnc(N)c34)c(Cl)c2)cc1C(F)(F)F [Example 191, 4-{8-amino-5-chloro-3-[(6R,8aS)-3-oxooctahydroindolizin-6-yl]imidazo[1,5-a]pyrazin-1-yl}-3-chloro-N-[1-methyl-5-(trifluoromethyl)-1H-pyrazol-3-yl]benzamide]	994	1.9
Cn1nc(NC(=O)c2cc(Cl)c(-c3nc([C@@H]4CC[C@H]5CCC(=O)N5C4)n4c(Cl)cnc(N)c34)cc2F)cc1C(F)(F)F [Example 192, 4-{8-amino-5-chloro-3-[(6R,8aS)-3-oxooctahydroindolizin-6-yl]imidazo[1,5-a]pyrazin-1-yl}-5-chloro-2-fluoro-N-[1-methyl-5-(trifluoromethyl)-1H-pyrazol-3-yl]benzamide]	408	24.6
Nc1nccn2c([C@@H]3CC[C@H]4CCC(=O)N4C3)nc(-c3cc(F)c(C(=O)Nc4cc(C(F)(F)F)ccn4)cc3Cl)c12 [Example 193, 4-{8-amino-3-[(6R,8aS)-3-oxooctahydroindolizin-6-yl]imidazo[1,5-a]pyrazin-1-yl}-5-chloro-2-fluoro-N-[4-(trifluoromethyl)pyridin-2-yl]benzamide]	213	4.6
Nc1ncc(Cl)n2c([C@@H]3CC[C@H]4CCC(=O)N4C3)nc(-c3ccc(C(=O)Nc4cc(C(F)(F)F)ccn4)cc3Cl)c12 [Example 194, 4-{8-amino-5-chloro-3-[(6R,8aS)-3-oxooctahydroindolizin-6-yl]imidazo[1,5-a]pyrazin-1-yl}-3-chloro-N-[4-(trifluoromethyl)pyridin-2-yl]benzamide]	226	0.39
Cc1cnc(NC(=O)c2ccc(-c3nc([C@@H]4CC[C@H]5CCC(=O)N5C4)n4ccnc(N)c34)c(Cl)c2)s1 [Example 195, 4-(8-amino-3-((6R,8aS)-3-oxooctahydroindolizin-6-yl)imidazo[1,5-a]pyrazin-1-yl)-3-chloro-N-(5-methylthiazol-2-yl)benzamide]	175	0.63
Cc1cnc(NC(=O)c2ccc(-c3nc([C@@H]4CC[C@H]5CCC(=O)N5C4)n4c(Cl)cnc(N)c34)c(Cl)c2)s1 [Example 196, 4-(8-amino-5-chloro-3-((6R,8aS)-3-oxooctahydroindolizin-6-yl)imidazo[1,5-a]pyrazin-1-yl)-3-chloro-N-(5-methylthiazol-2-yl)benzamide]	741	1.5
Cc1cc(C(=O)Nc2cc(C(F)(F)F)ccn2)c(F)cc1-c1nc([C@@H]2CC[C@H]3CCC(=O)N3C2)n2c(Cl)cnc(N)c12 [Example 197, 4-(8-amino-5-chloro-3-((6R,8aS)-3-oxooctahydroindolizin-6-yl)imidazo[1,5-a]pyrazin-1-yl)-2-fluoro-5-methyl-N-(4-(trifluoromethyl)pyridin-2-yl)benzamide]	199	7.8
